Data: publication PMC8039949, “A novel small-molecule PROTAC selectively promotes tau clearance to improve cognitive functions in Alzheimer-like models” (Theranostics, 2021)

Tests used:
human tau (hTau) = target: T1, human tau (hTau) (Homo sapiens, UniProt P10636); assay: Tau clearance in HEK293-hTau cells by Western blotting; type: cell-based
T1 construct: expressed in transfected cells
Experimental: (§1) SH-SY5Y human neuroblastoma cells were cultured in 90% DME/F-12 medium (HyClone, SH30023.01) with 10% fetal bovine serum (FBS) (Biological Industries, 04-001-1ACS) and penicillin (100 U/mL)/ streptomycin (100 μg/mL) in a 37 °C incubator with humidified atmosphere of 5% CO2. Human embryonic kidney 293 cells (HEK293) or HEK293 with stable expression of wild-type full-length human tau (termed as HEK293-hTau) were cultured in 90% DMEM/High Glucose medium (HyClone, SH30022.01) containing 10% FBS and 200 μg/mL G418 (ThermoFisher Scientific, 10131027), in a humidified atmosphere of 5% CO2 at 37 °C. Neofect (DNA transfection reagent, TF20121201) was used for plasmids transfection. The cells were placed onto 6-well or 12-well plates. Plasmids (EGFP-hTau or 3xFlag-hTau or the vector), neofect and Opti-MEM medium (Gibco, 31985-070) were made into a mixture in a ratio of 1 μg: 1 μL : 100 μL and then added into each well of the plate. To inhibit proteasome activity, HEK293-hTau cells were cultured with DMEM/High medium containing 20 μM C004019 with or without 10 μM MG132, or the same volume of vehicle (DMSO) for 24 h at 37 °C. To induce tau hyperphosphorylation, SH-SY5Y cells were cultured with DME/F-12 medium containing 10 μM C004019 with or without 1 μM GFX and 1 μM WO for 24 h at 37 °C.
(§2) The cells or hippocampal/cortex tissues were homogenized for ~ 30 min on ice in buffer [50 mM Tris·HCl pH 7.4-7.5, 100 mM NaCl, 1% (vol/vol) Triton X-100, 5 mM EDTA, 1:100 PMSF, 1:1,000 protease inhibitor cocktail containing 4-(2-Aminoethyl)-benzenesulfonyl fluoride hydrochloride, aprotinin, bestatin, leupeptin, E-64, and pepstatin A stored at 4 °C], and then centrifuged at 12,000 × g at 4 °C for 20 min. The supernatant was collected and the protein levels were analyzed using bicinchoninic acid (BCA, KF016, Sigma-Aldrich) by following the manufacturer's instruction (served as soluble protein). The pellet was further incubated with 8% (wt/vol) SDS buffer at 4 °C and then treated by ultrasonic wave to reach a complete resuspension. […] Immunoreactive bands were quantitatively analyzed by Image J2x software.

tau [1] = assay: Tau clearance in SH-SY5Y cells by Western blotting; type: cell-based, human
Experimental: as §1, §2

mRNA level of tau = assay: Tau mRNA level by q-PCR in HEK293-hTau cells; type: cell-based, human; details: 20 μM for 24 h
Experimental: Total RNA was isolated by using Trizol™ kit (Invitrogen, Carlsbad, CA, USA) and the reverse transcription reagent kit (RR037, Takara) was used to obtain cDNA. RT-PCR was performed using a StepOnePlus Real-Time PCR Detection System (AB Applied Biosystems, 272001262, Cossell Biotechnology). The PCR system contains 2 μL forward and reverse primers, 10 μL SYBR Green PCR master mixes, 1 μL cDNA and 7 μL diethylpyrocarbonate (DEPC H2O). The primer of MAPT-forward was CAGCTCCGGCACCAACAG and the MAPT-reverse was […]. The primer of β-actin-forward was […] and β-actin-reverse was […].

tau with Vhl (E3 ligase) = target: T2, tau with Vhl (E3 ligase) (Homo sapiens, UniProt P10636+P40337); assay: Co-immunoprecipitation of tau with Vhl and tau ubiquitination in HEK293-hTau cells; type: cell-based; details: 20 μM for 6 h
T2 construct: expressed in transfected cells; host or cells: HEK293-hTau (tau stably expressed; VHL endogenous)
T2 sequence (P10636 1-441 isoform P10636-8): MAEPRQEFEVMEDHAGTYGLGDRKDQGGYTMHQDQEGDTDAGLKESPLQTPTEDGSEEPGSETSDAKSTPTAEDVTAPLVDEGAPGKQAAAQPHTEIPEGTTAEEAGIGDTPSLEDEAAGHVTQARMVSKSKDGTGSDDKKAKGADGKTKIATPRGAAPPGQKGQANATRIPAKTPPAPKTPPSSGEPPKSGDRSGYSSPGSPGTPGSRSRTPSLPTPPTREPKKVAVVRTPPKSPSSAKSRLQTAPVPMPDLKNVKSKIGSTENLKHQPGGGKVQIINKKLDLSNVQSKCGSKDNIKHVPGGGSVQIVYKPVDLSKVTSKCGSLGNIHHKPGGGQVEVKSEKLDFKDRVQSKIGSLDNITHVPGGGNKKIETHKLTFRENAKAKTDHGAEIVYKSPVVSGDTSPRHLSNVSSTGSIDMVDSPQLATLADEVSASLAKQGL
T2 sequence (P40337 whole entry): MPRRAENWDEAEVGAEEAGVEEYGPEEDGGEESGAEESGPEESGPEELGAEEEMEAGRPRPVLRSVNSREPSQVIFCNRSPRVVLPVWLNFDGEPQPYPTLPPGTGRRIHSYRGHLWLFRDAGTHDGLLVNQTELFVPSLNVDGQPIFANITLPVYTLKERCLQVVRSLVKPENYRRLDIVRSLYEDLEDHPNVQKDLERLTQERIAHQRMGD
T2 sequence (Q15369 whole entry partner): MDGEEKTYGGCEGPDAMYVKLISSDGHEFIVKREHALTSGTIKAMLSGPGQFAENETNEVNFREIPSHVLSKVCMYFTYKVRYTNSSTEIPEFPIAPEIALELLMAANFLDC
T2 sequence (Q15370 whole entry partner): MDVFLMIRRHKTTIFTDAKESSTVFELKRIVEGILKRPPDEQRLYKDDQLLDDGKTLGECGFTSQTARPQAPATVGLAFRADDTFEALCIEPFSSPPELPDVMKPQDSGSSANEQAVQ
T2 sequence (Q13617 whole entry partner): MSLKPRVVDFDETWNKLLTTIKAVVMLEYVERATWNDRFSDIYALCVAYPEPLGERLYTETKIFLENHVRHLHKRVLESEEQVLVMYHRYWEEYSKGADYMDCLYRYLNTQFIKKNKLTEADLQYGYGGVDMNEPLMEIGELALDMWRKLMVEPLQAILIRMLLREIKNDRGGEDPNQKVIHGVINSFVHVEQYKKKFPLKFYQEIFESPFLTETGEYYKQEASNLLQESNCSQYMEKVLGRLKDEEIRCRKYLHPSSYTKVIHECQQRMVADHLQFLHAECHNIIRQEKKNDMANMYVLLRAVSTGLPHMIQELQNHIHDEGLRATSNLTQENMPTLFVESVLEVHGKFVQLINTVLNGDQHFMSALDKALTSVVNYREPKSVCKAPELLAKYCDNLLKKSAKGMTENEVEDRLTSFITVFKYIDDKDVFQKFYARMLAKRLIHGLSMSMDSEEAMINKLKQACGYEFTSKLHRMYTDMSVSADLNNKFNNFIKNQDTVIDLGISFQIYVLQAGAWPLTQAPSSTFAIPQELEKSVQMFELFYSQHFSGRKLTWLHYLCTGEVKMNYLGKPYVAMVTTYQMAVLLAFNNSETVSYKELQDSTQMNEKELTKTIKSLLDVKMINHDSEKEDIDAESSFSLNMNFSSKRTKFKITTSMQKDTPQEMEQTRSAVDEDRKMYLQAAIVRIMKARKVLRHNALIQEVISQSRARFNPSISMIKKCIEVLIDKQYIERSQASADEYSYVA
T2 sequence (P62877 whole entry partner): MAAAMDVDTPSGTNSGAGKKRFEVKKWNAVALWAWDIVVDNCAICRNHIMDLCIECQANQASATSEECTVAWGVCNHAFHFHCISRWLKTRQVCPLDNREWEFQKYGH
Experimental: Cell lysates were centrifuged at 12,000 g for 20 min at 4 °C and the supernatant were incubated with protein G agarose beads (Millipore, 16-266), pre-washed with cold PBS for 1 h at 4 °C to remove non-specific proteins. After centrifuged (14,000 g) at 4 °C for 15 min, the supernatant was collected and protein concentration was measured by BCA assay. The supernatant was sequentially incubated with primary antibodies (2 μg/100 μg) overnight at 4 °C with rotating in the first day and protein G agarose beads (20 μL/100 μL) the next day. After spin (6,000 g) for 2 min at 4 °C, the pellets were collected, washed with precooled washing buffer for 3 times, resuspended in buffer (50 mM Tris-HCl, pH 6.8, 2% SDS, 10% glycerol), boiled for 10 min, and analyzed by Western blotting.

tau [2] = target: tau (Mus musculus, UniProt P10637); assay: Intracerebroventricular infusion in wild-type mice, brain tau by Western blotting; type: in vivo; details: 4 m-old wild-type mice, intracerebroventricular 5 μL, 200 μM
Chain of tau (Mus musculus, UniProt P10637) (P10637 114-430 isoform P10637-2 limits assumed): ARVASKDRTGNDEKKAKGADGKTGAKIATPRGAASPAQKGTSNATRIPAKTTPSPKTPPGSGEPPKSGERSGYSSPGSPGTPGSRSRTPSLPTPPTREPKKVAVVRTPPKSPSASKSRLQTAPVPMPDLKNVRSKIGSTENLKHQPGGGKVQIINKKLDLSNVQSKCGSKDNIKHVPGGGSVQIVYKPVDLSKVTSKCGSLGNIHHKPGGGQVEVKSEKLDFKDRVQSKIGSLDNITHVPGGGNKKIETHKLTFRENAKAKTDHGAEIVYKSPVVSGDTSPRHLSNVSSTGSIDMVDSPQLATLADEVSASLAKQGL
Experimental: (§3) For brain surgery and stereotaxic cerebroventricular drug delivery, the mice were placed in a stereotaxic apparatus and anesthetized with 2% isoflurane (RWD Life Science, R510-22) through a nose cone (300-500 mL/min, RWD Life Science, China, R500). The scalp was incised along the midline between the ears after the mice were sterilized with iodophors and 75% (vol/vol) alcohol. The holes were drilled stereotaxically in the skull at a cerebroventricular location (posterior 0.22 mm, lateral 0.9 mm, and ventral 2.3 mm relative to bregma). Using a microinjection system (Shenzhen RWD Life Technology Co., Ltd; RWD 69100), C004019 (5 μL, 200 μM) was infused at a rate of 0.5 μL/min. The needle was kept in place for 10 min before withdrawal. After the skin was sutured, the mice were placed on a heater for analepsia. For subcutaneous injection, C004019 was diluted with 20% HP-β-CD and injected under the skin on the back neck to reach a final concentration of 3 mg/kg (low dose) or 15 mg/kg (high dose).
as §2, with “resuspension. The suspension was spun (18,000 × g, 4 °C for 20 min) and the supernatant collected (served as insoluble fraction). The supernatant of different faction was respectively mixed with loading buffer (3:1, vol/vol) containing 200 mM Tris-HCl, pH 6.8, 8% SDS, 40% glycerol, and boiled for 10 min.” for “resuspension.”

MAP2 = target: T3, MAP2 (Mus musculus, UniProt P20357); assay: MAP2 protein level after intracerebroventricular infusion (specificity); type: in vivo; details: 4 m-old wild-type and 9.5 m-old 3xTg-AD mice; intracerebroventricular 5 μL, 200 μM
T3 construct: from tissue; host or cells: hippocampus and cortex of wild-type and 3xTg-AD mice
T3 sequence (P20357 whole entry, the tested form may be a part): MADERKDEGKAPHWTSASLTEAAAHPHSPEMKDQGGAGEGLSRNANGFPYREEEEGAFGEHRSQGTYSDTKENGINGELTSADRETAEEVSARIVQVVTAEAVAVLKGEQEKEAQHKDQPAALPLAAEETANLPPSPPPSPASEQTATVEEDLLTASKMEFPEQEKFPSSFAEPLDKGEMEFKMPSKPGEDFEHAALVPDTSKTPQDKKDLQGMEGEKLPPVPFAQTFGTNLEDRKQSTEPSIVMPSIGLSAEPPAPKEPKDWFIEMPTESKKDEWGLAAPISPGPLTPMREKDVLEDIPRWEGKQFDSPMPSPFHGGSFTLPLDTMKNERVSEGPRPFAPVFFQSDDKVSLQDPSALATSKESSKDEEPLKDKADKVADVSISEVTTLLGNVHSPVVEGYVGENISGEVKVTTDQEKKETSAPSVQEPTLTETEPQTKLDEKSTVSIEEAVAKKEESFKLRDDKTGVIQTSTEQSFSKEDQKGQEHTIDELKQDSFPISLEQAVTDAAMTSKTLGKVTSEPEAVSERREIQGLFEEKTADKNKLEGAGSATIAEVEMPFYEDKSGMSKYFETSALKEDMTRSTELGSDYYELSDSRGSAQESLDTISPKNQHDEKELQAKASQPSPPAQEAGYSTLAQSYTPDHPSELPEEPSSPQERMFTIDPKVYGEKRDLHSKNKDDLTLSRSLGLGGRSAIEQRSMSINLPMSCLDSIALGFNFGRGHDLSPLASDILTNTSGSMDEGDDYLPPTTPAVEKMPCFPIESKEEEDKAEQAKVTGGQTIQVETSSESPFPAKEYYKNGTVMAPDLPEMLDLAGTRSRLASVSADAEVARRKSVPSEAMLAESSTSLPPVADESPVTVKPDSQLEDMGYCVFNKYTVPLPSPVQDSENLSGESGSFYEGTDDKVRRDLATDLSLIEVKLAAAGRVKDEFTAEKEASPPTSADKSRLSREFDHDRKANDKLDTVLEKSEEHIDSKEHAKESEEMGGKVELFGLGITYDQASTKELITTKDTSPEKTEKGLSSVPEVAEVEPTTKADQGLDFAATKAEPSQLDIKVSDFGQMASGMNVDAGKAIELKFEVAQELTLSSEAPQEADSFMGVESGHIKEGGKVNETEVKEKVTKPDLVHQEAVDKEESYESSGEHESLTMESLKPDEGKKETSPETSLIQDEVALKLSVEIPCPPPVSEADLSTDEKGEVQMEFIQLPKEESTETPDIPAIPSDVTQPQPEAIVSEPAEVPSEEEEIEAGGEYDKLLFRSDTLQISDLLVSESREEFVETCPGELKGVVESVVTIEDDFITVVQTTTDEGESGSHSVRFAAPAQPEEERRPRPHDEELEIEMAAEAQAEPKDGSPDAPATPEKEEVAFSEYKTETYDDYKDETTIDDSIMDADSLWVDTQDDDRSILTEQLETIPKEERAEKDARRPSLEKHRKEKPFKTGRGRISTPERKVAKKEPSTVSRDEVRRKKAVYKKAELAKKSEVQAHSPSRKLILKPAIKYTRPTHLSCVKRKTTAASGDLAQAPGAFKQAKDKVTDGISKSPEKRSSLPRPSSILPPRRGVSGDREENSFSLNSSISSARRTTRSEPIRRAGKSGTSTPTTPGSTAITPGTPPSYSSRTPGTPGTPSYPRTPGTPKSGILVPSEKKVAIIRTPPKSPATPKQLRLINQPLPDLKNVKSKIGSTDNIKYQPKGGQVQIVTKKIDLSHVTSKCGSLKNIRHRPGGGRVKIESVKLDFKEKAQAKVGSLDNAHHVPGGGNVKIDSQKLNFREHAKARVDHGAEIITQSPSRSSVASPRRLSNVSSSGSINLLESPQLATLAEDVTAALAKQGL
Experimental: as §3, with “The needle was kept in place for 10 min before withdrawal. After the skin was sutured, the mice were placed on a heater for analepsia. For subcutaneous injection, C004019 was diluted with 20% HP-β-CD and injected under the skin on the back neck to reach a final concentration of 3 mg/kg (low dose) or 15 mg/kg (high dose).” left out
as §2, with “protein).” for “protein). The pellet was further incubated with 8% (wt/vol) SDS buffer at 4 °C and then treated by ultrasonic wave to reach a complete resuspension.”

T1 sequence (P10636 1-441 isoform P10636-8): as the sequence (P10636 1-441 isoform P10636-8) above

total tau (Tau5) and p-tau level (human tau (hTau); HEK293-hTau cells, Western blotting): concentration-dependent reduction
DC50 (human tau (hTau); cultured cells, read-out: DC50 (tau degrader)): ~5 nM
hippocampal tau level (tau [2]; 48 h): still very significant
protein level of MAP2 (MAP2): did not change the level of MAP2
SMILES: CC(=O)N1CCCN(c2nc(NCCc3cccs3)nc(N(C)CC(=O)NCCOCCOCCOCC(=O)N[C@H](C(=O)N3C[C@H](O)C[C@H]3C(=O)NCc3ccc(-c4scnc4C)cc3)C(C)(C)C)n2)CC1 [C004019]
p-tau and total tau levels under induced tau hyperphosphorylation (tau [1]; 10 μM C004019 with WO (1 μM) plus GFX (1 μM), 24 h): could efficiently decrease p-tau and total tau levels
phosphorylated tau level (tau [1]; 20 μM): could decrease phosphorylated tau
total tau (Tau5) and p-tau level (tau [1]; Western blotting): concentration-dependent reduction
mRNA level of tau (mRNA level of tau): did not significantly change the mRNA level of tau
ubiquitination level of tau (tau with Vhl (E3 ligase)): significantly increased the ubiquitination level of tau
hippocampal tau level (tau [2]; 24 h): most remarkable hippocampal tau reduction
brain cortex tau level (tau [2]; 24 h and 48 h): significant reduction of tau was only detected at 48 h but not 24 h
